Key:
Protein kinase Pfmrk = biological target: T1, Protein kinase Pfmrk (Plasmodium falciparum, UniProt P90584); assay: Inhibition of His6x-tagged Plasmodium falciparum Pfmrk expressed in Escherichia coli by microtiter plate scintillation counting
T1 sequence (P90584 whole entry): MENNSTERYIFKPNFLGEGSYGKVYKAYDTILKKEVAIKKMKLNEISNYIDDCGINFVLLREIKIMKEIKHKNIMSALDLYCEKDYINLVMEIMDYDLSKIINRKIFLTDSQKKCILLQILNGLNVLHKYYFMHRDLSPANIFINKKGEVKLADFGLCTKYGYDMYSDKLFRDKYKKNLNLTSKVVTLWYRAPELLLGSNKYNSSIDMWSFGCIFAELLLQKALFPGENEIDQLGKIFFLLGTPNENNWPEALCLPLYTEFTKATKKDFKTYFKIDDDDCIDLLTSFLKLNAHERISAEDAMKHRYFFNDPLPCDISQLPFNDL

[1] = Inhibition of His6x-tagged Plasmodium falciparum PfPK5 expressed in Escherichia coli by microtiter plate scintillation counting
Plasmodium falciparum [2] = assay: Antimalarial activity after 24 hrs against chloroquine-resistant Plasmodium falciparum W2 by [3H]hypoxanthine uptake; format: functional, organism-based
Plasmodium falciparum [3] = assay: Antimalarial activity after 24 hrs against chloroquine-sensitive Plasmodium falciparum D6 by [3H]hypoxanthine uptake; format: functional, organism-based

| SMILES | IC50 (Protein kinase Pfmrk) | IC50 [1] | IC50 (Plasmodium falciparum [2]) | IC50 (Plasmodium falciparum [3]) |
| --- | --- | --- | --- | --- |
| COc1ccc(C(=O)/C=C/c2cccc3ccccc23)c(OC)c1 | 1.3 µM | > 100 µM | – | – |
| O=C(/C=C/c1ccccc1)c1cccc([N+](=O)[O-])c1 | – | > 316 µM | > 19.8 µM | > 19.8 µM |
| CC(=O)Nc1ccc(C(=O)/C=C/c2ccccc2)cc1 | – | > 302 µM | 9.9 µM | 10.9 µM |
| COc1ccc(C(=O)/C=C/c2cccc3ccccc23)c(OC)c1OC | 50 µM | > 100 µM | – | – |
| COc1ccc(C(=O)/C=C/c2ccc3ccccc3c2)c(OC)c1 | 100 µM | – | – | – |
| COc1ccc(C(=O)/C=C/c2cccc3ccccc23)cc1 | > 100 µM | > 100 µM | – | – |
| COc1ccc(C(=O)/C=C/c2ccc3ccccc3c2)c(OC)c1OC | 19 µM | > 100 µM | – | – |
| COc1ccc(C(=O)/C=C/c2ccncc2)cc1 | 8.2 µM | 100 µM | 12.2 µM | 12 µM |
| Cc1ccc(C(=O)/C=C/c2ccccc2)cc1 | 20 µM | > 360 µM | 11.5 µM | 11.7 µM |
| N#Cc1ccc(C(=O)/C=C/c2ccc(Cl)cc2)cc1 | > 100 µM | > 299 µM | 10.5 µM | > 18.2 µM |
| COc1ccc(C(=O)/C=C/c2ccncc2)c(OC)c1OC | 9 µM | > 100 µM | 3.2 µM | 2.8 µM |
| O=C(/C=C/c1ccccn1)c1cccc([N+](=O)[O-])c1 | 18 µM | > 315 µM | > 19.7 µM | 11 µM |
| O=C(/C=C/c1ccc([N+](=O)[O-])cc1)c1cccc([N+](=O)[O-])c1 | 268 µM | > 268 µM | > 16.8 µM | > 16.8 µM |
| C/C(=C\C(=O)c1cccc([N+](=O)[O-])c1)c1cccc([N+](=O)[O-])c1 | > 256 µM | > 256 µM | 8.2 µM | 8.3 µM |
| CCOC(=O)/C(=C\c1ccccn1)C(=O)c1cccc([N+](=O)[O-])c1 | 61 µM | 123 µM | – | – |
| COc1ccc(C(=O)/C=C/c2ccccn2)cc1 | 12 µM | > 100 µM | 10.5 µM | 7.1 µM |
| COc1ccc(C(=O)/C=C/c2cccnc2)c(OC)c1OC | 38 µM | > 100 µM | 3.9 µM | 3.2 µM |
| COc1ccc(C(=O)/C=C/c2ccccn2)c(OC)c1OC | 34 µM | > 100 µM | 2.3 µM | 2.5 µM |
| O=C(/C=C/c1ccccn1)c1ccccc1 [WR-190433] | 22 µM | > 382 µM | – | – |
